Reference: US20240083853A1, “HSD17B13 INHIBITORS AND USES THEREOF” (FL2022-001, Inc., priority 2020, published 2024)

Biological target: T1, Recombinant human HSD17B13 enzyme (Homo sapiens, UniProt Q7Z5P4)
T1 sequence (Q7Z5P4 20-300): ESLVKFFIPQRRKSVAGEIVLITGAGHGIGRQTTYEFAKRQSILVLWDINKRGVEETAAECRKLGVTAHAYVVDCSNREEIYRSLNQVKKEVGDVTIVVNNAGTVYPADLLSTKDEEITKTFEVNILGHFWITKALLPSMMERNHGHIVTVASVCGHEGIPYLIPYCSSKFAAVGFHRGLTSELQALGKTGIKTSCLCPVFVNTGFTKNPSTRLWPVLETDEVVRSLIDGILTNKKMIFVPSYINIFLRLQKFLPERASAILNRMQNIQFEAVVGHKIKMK
Experiment: HSD17b13 NAD(P)H-Glo biochemical assay
Conditions: 50 uM estradiol, 1 mM NAD+, NAD(P)H-Glo luminescence; read-out: HSD17β13 IC50
Summary of the method: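 Luminescent NAD(P)H-Glo read-out, taken after 1 hour at RT, measured cofactor reduction. Substrate and cofactor were estradiol at 50 uM and NAD+ at 1 mM final, reacted with the recombinant human enzyme for 3 hours at 37° C in 20 mM Tris pH7.4, 0.002% Tween-20, 0.02% BSA. Compound was pre-incubated with enzyme for 20 minutes at RT.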

`Cc1c(F)c(O)cc2c1cnn2-c1ccc(-c2cccc(O)c2)cc1` [Compound 4.2, 5-Fluoro-1-(3′-hydroxy-[1,1′-biphenyl]-4-yl)-4-methyl-1H-indazol-6-ol] gave an IC50 of 100 to 1000 nM.
In the case of `N#CC1CCN(c2ccc(-n3ncc4cc(F)c(O)c(F)c43)cc2)CC1` [Compound 22, 1-(4-(5,7-Difluoro-6-hydroxy-1H-indazol-1-yl)phenyl)piperidine-4-carbonitrile], the IC50 is reported as under 100 nM.
For `C[C@H]1CN(c2ccc(-n3ncc4cc(F)c(O)c(F)c43)cc2)C[C@H](C)S1` (relative stereo) [Compound 32.5, 1-(4-(trans-2,6-Dimethylthiomorpholino)phenyl)-5,7-difluoro-1H-indazol-6-ol], the IC50 was under 100 nM.
For `[O-][S+]1CC2(CN(c3ccc(-n4ncc5cc(F)c(O)c(F)c54)cc3)C2)C1` [Compound 32.2, 6-(4-(5,7-Difluoro-6-hydroxy-1H-indazol-1-yl)phenyl)-2-thia-6-azaspiro[3.3]heptane 2-oxide], the IC50 was 100 to 1000 nM.
`COC1(C)CCN(c2ccc(-n3ncc4cc(F)c(O)c(F)c43)cc2)CC1` [Compound 20.20, 5,7-Difluoro-1-(4-(4-methoxy-4-methylpiperidin-1-yl)phenyl)-1H-indazol-6-ol] showed an IC50 of under 100 nM.
With `Oc1c(F)cc2cnn(-c3ccc(-c4cccnc4)cc3)c2c1F` [Compound 14.3, 5,7-Difluoro-1-(4-(pyridin-3-yl)phenyl)-1H-indazol-6-ol] the IC50 was under 100 nM.
`Oc1ccc(-c2ccc(-n3ncc4ccc(O)c(F)c43)cc2)cc1` [Compound 2.4, 7-Fluoro-1-(4′-hydroxy-[1,1′-biphenyl]-4-yl)-1H-indazol-6-ol] showed an IC50 of 100 to 1000 nM.
Molecule `CCC1(C)CN(c2ccc(-n3ncc4cc(F)c(O)c(F)c43)cc2)C1` [Compound 24.4, 1-(4-(3-Ethyl-3-methylazetidin-1-yl)phenyl)-5,7-difluoro-1H-indazol-6-ol] has an IC50 of under 100 nM.
Molecule `CS(=O)(=O)N1CCN(c2ccc(-n3nnc4cc(F)c(O)c(F)c43)cc2)CC1` [Compound 21.3, 5,7-Difluoro-1-(4-(4-(methylsulfonyl)piperazin-1-yl)phenyl)-1H-benzo[d][1,2,3]triazol-6-ol] has an IC50 of under 100 nM.
In the case of `COCC1(C)CCN(c2ccc(-n3ncc4cc(F)c(O)c(F)c43)cc2)CC1` [Compound 20.18, 5,7-Difluoro-1-(4-(4-(methoxymethyl)-4-methylpiperidin-1-yl)phenyl)-1H-indazol-6-ol], the IC50 is reported as under 100 nM.
With `Oc1cc2c(cnn2-c2ccc(Oc3ccccc3)cc2)cc1F` [Compound 2.3, 5-Fluoro-1-(4-phenoxyphenyl)-1H-indazol-6-o1] the IC50 was 100 to 1000 nM.
`Oc1cccc(-c2ccc(-n3ncc4c(F)cc(O)c(F)c43)cc2)c1` [Compound 16, 4,7-Difluoro-1-(3′-hydroxy-[1,1′-biphenyl]-4-yl)-1H-indazol-6-ol] gave an IC50 of 100 to 1000 nM.
Molecule `Oc1cc2c(cnn2-c2ccc(-c3ccccc3F)cc2)cc1F` [Compound 13.3, 5-Fluoro-1-(2′-fluoro-[1,1′-biphenyl]-4-yl)-1H-indazol-6-ol] has an IC50 of 100 to 1000 nM.
Molecule `Oc1ccc(-c2ccc(-n3ncc4cc(Cl)c(O)cc43)cc2)cc1` [Compound 2.5, 5-Chloro-1-(4′-hydroxy-[1,1′-biphenyl]-4-yl)-1H-indazol-6-ol] has an IC50 of 100 to 1000 nM.
Work on `CCn1c(=O)n(-c2ccc(N3CCC(C)(C)CC3)cc2)c2c(F)c(O)c(F)cc21` [Compound 12, 3-(4-(4,4-Dimethylpiperidin-1-yl)phenyl)-1-ethyl-4,6-difluoro-5-hydroxy-1H-benzo[d]imidazol-2(3H)-one] yielded an IC50 of 100 to 1000 nM.
With `Oc1c(F)cc2cnn(-c3ccc(N4CCCCC4)cc3)c2c1F` [Compound 23.2, 5,7-Difluoro-1-(4-(piperidin-1-yl)phenyl)-1H-indazol-6-ol] the IC50 was under 100 nM.
`CC1(C)CCN(c2ccc(-n3ncc4c(Cl)c(F)c(O)cc43)cc2)CC1` [Compound 5.2, 4-Chloro-1-(4-(4,4-dimethylpiperidin-1-yl)phenyl)-5-fluoro-1H-indazol-6-ol] showed an IC50 of 100 to 1000 nM.
`CS(=O)(=O)N1CCC(c2ccc(-n3cnc4cc(F)c(O)c(F)c43)cc2)CC1` [Compound 28, 5,7-Difluoro-1-(4-(1-(methylsulfonyl)piperidin-4-yl)phenyl)-1H-benzo[d]imidazol-6-ol] gave an IC50 of under 100 nM.
For `Oc1c(F)cc2nnn(-c3ccc(N4CCO[C@H](c5ccccc5)C4)cc3)c2c1F` [Compound 26.27, (R)-5,7-Difluoro-1-(4-(2-phenylmorpholino)phenyl)-1H-benzo[d][1,2,3]triazol-6-ol], the IC50 was 100 to 1000 nM.
For `Nc1cccc(-c2ccc(-n3ncc4cc(F)c(O)cc43)cc2)c1` [Compound 13.27, 1-(3′-Amino-[1,1′-biphenyl]-4-yl)-5-fluoro-1H-indazol-6-ol], the IC50 was 1000 to 30000 nM.
Molecule `Oc1cccc(-c2ccc(-n3ncc4cc(F)c(O)cc43)cc2)c1` [Compound 2, 5-Fluoro-1-(3′-hydroxy-[1,1′-biphenyl]-4-yl)-1H-indazol-6-ol] has an IC50 of 100 to 1000 nM.
`Oc1c(F)cc2cnn(-c3ccc(-c4cn[nH]c4)cc3)c2c1F` [Compound 14.1, 1-(4-(1H-Pyrazol-4-yl)phenyl)-5,7-difluoro-1H-indazol-6-ol] was tested, and the IC50 was 100 to 1000 nM.
For `Cc1cc(-n2ncc3cc(F)c(O)c(F)c32)ccc1N1CCN(S(C)(=O)=O)CC1` [Compound 20.3, 5,7-Difluoro-1-(3-methyl-4-(4-(methylsulfonyl)piperazin-1-yl)phenyl)-1H-indazol-6-ol], the IC50 was under 100 nM.
`N#Cc1ccc(-c2ccc(-n3ncc4cc(F)c(O)c(F)c43)cc2)cn1` [Compound 14, 5-(4-(5,7-Difluoro-6-hydroxy-1H-indazol-1-yl)phenyl)picolinonitrile] showed an IC50 of under 100 nM.
Molecule `Oc1cc(-c2ccc(-n3ncc4cc(F)c(O)c(F)c43)cc2)ccc1Cl` [Compound 13.19, 1-(4′-Chloro-3′-hydroxy-[1,1′-biphenyl]-4-yl)-5,7-difluoro-1H-indazol-6-ol] has an IC50 of under 100 nM.
`CC1CN(c2ccc(-n3ncc4cc(F)c(O)c(F)c43)cc2)CC(C)S1(=O)=O` (stereo not shown) [Compound 32, 4-(4-(5,7-Difluoro-6-hydroxy-1H-indazol-1-yl)phenyl)-2,6-dimethylthiomorpholine 1,1-dioxide] gave an IC50 of 100 to 1000 nM.
`CCS(=O)(=O)N1CCN(c2ccc(-n3ncc4cc(F)c(O)c(F)c43)cc2)CC1` [Compound 23.8, 1-(4-(4-(Ethylsulfonyl)piperazin-1-yl)phenyl)-5,7-difluoro-1H-indazol-6-ol] gave an IC50 of 100 to 1000 nM.
`CC1(C)COCCN1c1ccc(-n2ncc3cc(F)c(O)c(F)c32)cc1` [Compound 20.6, 1-(4-(3,3-Dimethylmorpholino)phenyl)-5,7-difluoro-1H-indazol-6-ol] showed an IC50 of 100 to 1000 nM.
`NC(=O)c1ccc(-c2ccc(-n3ncc4cc(F)c(O)cc43)cc2)cc1` [Compound 13.36, 4′-(5-Fluoro-6-hydroxy-1H-indazol-1-yl)-[1,1′-biphenyl]-4-carboxamide] gave an IC50 of 100 to 1000 nM.
`CS(=O)(=O)N1CCN(c2cnc(-n3ncc4cc(F)c(O)c(F)c43)nc2)CC1` [Compound 26.9, 5,7-Difluoro-1-(5-(4-(methylsulfonyl)piperazin-1-yl)pyrimidin-2-yl)-1H-indazol-6-ol] was tested, and the IC50 was 100 to 1000 nM.
In the case of `CS(=O)(=O)c1ccc(-c2ccc(-n3ncc4cc(F)c(O)c(F)c43)cc2)cc1` [Compound 13.40, 5,7-Difluoro-1-(4′-(methylsulfonyl)-[1,1′-biphenyl]-4-yl)-1H-indazol-6-ol], the IC50 is reported as 100 to 1000 nM.
For `CC1(C#N)CN(c2ccc(-n3ncc4cc(F)c(O)c(F)c43)cc2)C1` [Compound 23.27, 1-(4-(5,7-Difluoro-6-hydroxy-1H-indazol-1-yl)phenyl)-3-methylazetidine-3-carbonitrile], the IC50 was under 100 nM.
For `O=S1(=O)CCN(c2ccc(-n3ncc4cc(F)c(O)c(F)c43)cc2)CC1` [Compound 23.5, 4-(4-(5,7-Difluoro-6-hydroxy-1H-indazol-1-yl)phenyl)thiomorpholine 1,1-dioxide], the IC50 was 100 to 1000 nM.
For `Oc1c(F)cc2cnn(-c3ccc(N4CCC5(CCC5)CC4)cc3)c2c1F` [Compound 23.24, 1-(4-(7-Azaspiro[3.5]nonan-7-yl)phenyl)-5,7-difluoro-1H-indazol-6-ol], the IC50 was under 100 nM.
Molecule `Oc1cccc(-c2ccc(-n3ncc4cc(F)c(O)c(Cl)c43)cc2)c1` [Compound 17, 7-Chloro-5-fluoro-1-(3′-hydroxy-[1,1′-biphenyl]-4-yl)-1H-indazol-6-ol] has an IC50 of 100 to 1000 nM.
Molecule `CC1CN(c2ccc(-n3ncc4cc(F)c(O)c(F)c43)cc2)CC(C)[S+]1[O-]` (stereo not shown) [Compound 32.3, 4-(4-(5,7-Difluoro-6-hydroxy-1H-indazol-1-yl)phenyl)-2,6-dimethylthiomorpholine 1-oxide] has an IC50 of 100 to 1000 nM.
`CS(=O)(=O)N1CC=C(c2ccc(-n3ncc4cc(F)c(O)c(F)c43)cc2)CC1` [Compound 27.4, 5,7-Difluoro-1-(4-(1-(methylsulfonyl)-1,2,3,6-tetrahydropyridin-4-yl)phenyl)-1H-indazol-6-ol] gave an IC50 of under 100 nM.
For `Oc1cccc(-c2ccc(-n3ncc4cc(F)c(O)c(F)c43)cc2)c1` [Compound 13.12, 5,7-Difluoro-1-(3′-hydroxy-[1,1′-biphenyl]-4-yl)-1H-indazol-6-ol], the IC50 was under 100 nM.
`CC1(C)CCN(c2cnc(-n3nnc4cc(F)c(O)c(F)c43)nc2)CC1` [Compound 26.20, 1-(5-(4,4-Dimethylpiperidin-1-yl)pyrimidin-2-yl)-5,7-difluoro-1H-benzo[d][1,2,3]triazol-6-ol] was tested, and the IC50 was under 100 nM.
For `Nc1ccc(-c2ccc(-n3ncc4cc(F)c(O)cc43)cc2)cc1` [Compound 13.28, 1-(4′-Amino-[1,1′-biphenyl]-4-yl)-5-fluoro-1H-indazol-6-ol], the IC50 was 100 to 1000 nM.
